# Results reported in patent publication US9492377B2, “Effervescent composition in solid form for use in vaginal applications for the treatment of vaginal infections” (PROBIOTICAL S.P.A., priority 2011, dated 2016).
# System: microorganisms
smiles,measurement,setting,value
O=C(O)CCCCC(=O)O [Adipic acid],portion of the total mortality observed accounted for by the toxicity,,about 60%
same,toxicity (mortality) on its own,pH 4.24,45.8%
